In ChEMBL document CHEMBL5576061, “The role of the methoxy group in approved drugs” (Eur J Med Chem, 2024):

Test system: Hepatitis C virus
Test: Antiviral activity against Hepatitis C virus genotype 1a infected in human Huh-7 cells assessed as reduction in viral infection
Assay type: functional, organism-based, Hepacivirus hominis
Conditions: not given

| Compound | EC50 |
| --- | --- |
| COc1ccc2c(c1)[C@@H]1C[C@]1(C(=O)N1C[C@@H](C)O[C@@H](C)C1)Cn1c-2c(C2CCCCC2)c2ccc(C(=O)NS(=O)(=O)N(C)C)cc21 | 12 nM |

Test system: Human immunodeficiency virus 1
Test: Antiviral activity against HIV-1 infected in human MT4 cells assessed as inhibition of viral growth
Assay type: functional, organism-based
Conditions: Human immunodeficiency virus 1, MT4

| Compound | EC50 |
| --- | --- |
| O=C(O)c1c[nH]c2ccc(Cc3cccc(Cl)c3F)cc2c1=O | 805 nM |
| O=C(O)c1cn(CCO)c2ccc(Cc3cccc(Cl)c3F)cc2c1=O | 76.3 nM |
| O=C(O)c1cnc2ccc(Cc3ccccc3)cc2c1O | > 30000 nM |

Test system: Human immunodeficiency virus 1
Test: Antiviral activity against HIV-1 3B infected in human MT4 cells assessed as reduction in virus-induced cytopathic effect incubated for 4 days by MTT assay
Assay type: functional, organism-based
Conditions: Human immunodeficiency virus 1, 3B, MT4, 96 h

| Compound | EC50 |
| --- | --- |
| CNC(=O)c1ccc(OC)c2c(C(=O)C(=O)N3CCN(C(=O)c4ccccc4)CC3)c[nH]c12 | 0.76 nM |
| CNC(=O)c1ncc(OC)c2c(C(=O)C(=O)N3CCN(C(=O)c4ccccc4)CC3)c[nH]c12 | 0.28 nM |

Biological target: Human immunodeficiency virus type 1 integrase (Human immunodeficiency virus 1, UniProt Q7ZJM1)
Sequence (Q7ZJM1 whole entry): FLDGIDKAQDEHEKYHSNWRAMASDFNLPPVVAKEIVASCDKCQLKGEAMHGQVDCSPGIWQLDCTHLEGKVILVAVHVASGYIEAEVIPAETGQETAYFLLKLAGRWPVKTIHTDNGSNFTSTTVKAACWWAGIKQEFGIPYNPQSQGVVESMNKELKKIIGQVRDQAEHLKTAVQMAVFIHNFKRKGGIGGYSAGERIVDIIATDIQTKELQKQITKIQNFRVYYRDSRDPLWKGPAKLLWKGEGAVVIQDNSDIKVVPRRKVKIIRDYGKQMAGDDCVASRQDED
Test: Inhibition of HIV-1 integrase
Conditions: not given

| Compound | IC50 |
| --- | --- |
| C=C[C@@H]1C[C@]1(NC(=O)[C@@H]1C[C@@H](Oc2ncc(OC)c3ccccc23)CN1C(=O)[C@@H](NC(=O)OC(C)(C)C)C(C)(C)C)C(=O)NS(=O)(=O)C1CC1 | 2 nM |
| C=C[C@@H]1C[C@]1(NC(=O)[C@@H]1C[C@@H](Oc2nccc3ccccc23)CN1C(=O)[C@@H](NC(=O)OC(C)(C)C)C(C)(C)C)C(=O)NS(=O)(=O)C1CC1 | 7 nM |
| C=C[C@@H]1C[C@]1(NC(=O)[C@@H]1C[C@@H](Oc2nccc3ccc(Cl)cc23)CN1C(=O)[C@@H](NC(=O)OC(C)(C)C)C(C)(C)C)C(=O)NS(=O)(=O)C1CC1 | 12 nM |

Test system: Human immunodeficiency virus 1
Test: Antiviral activity against HIV-1 HTLV-IIIB infected in human MT4 cells assessed as reduction in virus induced cytopathic effect by immunofluorescence assay
Assay type: functional, organism-based
Conditions: Human immunodeficiency virus 1, MT4

| Compound | EC50 |
| --- | --- |
| C=C[C@@H]1C[C@]1(NC(=O)[C@@H]1C[C@@H](Oc2ncc(OC)c3ccc(Cl)cc23)CN1C(=O)[C@@H](NC(=O)OC(C)(C)C)C(C)(C)C)C(=O)NS(=O)(=O)C1CC1 | 6 nM |
| C=C[C@@H]1C[C@]1(NC(=O)[C@@H]1C[C@@H](Oc2ncc(OC)c3ccccc23)CN1C(=O)[C@@H](NC(=O)OC(C)(C)C)C(C)(C)C)C(=O)NS(=O)(=O)C1CC1 | 19 nM |
| C=C[C@@H]1C[C@]1(NC(=O)[C@@H]1C[C@@H](Oc2nccc3ccccc23)CN1C(=O)[C@@H](NC(=O)OC(C)(C)C)C(C)(C)C)C(=O)NS(=O)(=O)C1CC1 | 60 nM |
| C=C[C@@H]1C[C@]1(NC(=O)[C@@H]1C[C@@H](Oc2nccc3ccc(Cl)cc23)CN1C(=O)[C@@H](NC(=O)OC(C)(C)C)C(C)(C)C)C(=O)NS(=O)(=O)C1CC1 | 20 nM |

Test system: Hepatitis C virus
Test: Antiviral activity against Hepatitis C virus genotype 1b infected in human Huh-7 cells assessed as reduction in viral infection
Assay type: functional, organism-based, Hepacivirus hominis
Conditions: not given

| Compound | EC50 |
| --- | --- |
| COc1ccc2c(c1)[C@@H]1C[C@]1(C(=O)N1C[C@@H](C)O[C@@H](C)C1)Cn1c-2c(C2CCCCC2)c2ccc(C(=O)NS(=O)(=O)N(C)C)cc21 | 24 nM |

Biological target: not listed separately
Test: Inhibition of tyrosine kinase (unknown origin)
Parameters: species or system Homo sapiens
Conditions: not given

| Compound | IC50 |
| --- | --- |
| COc1cc(Nc2c(C#N)cnc3cc(OC)c(OC)cc23)c(Cl)cc1Cl | 4.3 nM |
| COc1cc2ncc(C#N)c(Nc3ccc(Cl)cc3Cl)c2cc1OC | 30 nM |
| COc1cc(Nc2c(C#N)cnc3cc(OCCCN4CCOCC4)c(OC)cc23)c(Cl)cc1Cl | 0.8 nM |
| COc1ccc2ncc(C#N)c(Nc3ccc(Cl)cc3Cl)c2c1 | 320 nM |
| COc1ccc2c(Nc3ccc(Cl)cc3Cl)c(C#N)cnc2c1 | 200 nM |
| COc1cc2ncc(C#N)c(Nc3cc(O)c(Cl)cc3Cl)c2cc1OC | 190 nM |
| CCOc1cc(Nc2c(C#N)cnc3cc(OC)c(OC)cc23)c(Cl)cc1Cl | 1200 nM |
| N#Cc1cnc2cc(O)c(O)cc2c1Nc1ccc(Cl)cc1Cl | > 1000 nM |
| N#Cc1cnc2ccccc2c1Nc1ccc(Cl)cc1Cl | > 1000 nM |
| COc1cc(Nc2c(C#N)cnc3cc(OCCCN4CCN(C)CC4)c(OC)cc23)c(Cl)cc1Cl [BOSUTINIB] | 1.2 nM |

Biological target: T1, Non-receptor tyrosine-protein kinase TYK2 (Homo sapiens, UniProt P29597)
T1 sequence (P29597 whole entry, the tested form may be a part): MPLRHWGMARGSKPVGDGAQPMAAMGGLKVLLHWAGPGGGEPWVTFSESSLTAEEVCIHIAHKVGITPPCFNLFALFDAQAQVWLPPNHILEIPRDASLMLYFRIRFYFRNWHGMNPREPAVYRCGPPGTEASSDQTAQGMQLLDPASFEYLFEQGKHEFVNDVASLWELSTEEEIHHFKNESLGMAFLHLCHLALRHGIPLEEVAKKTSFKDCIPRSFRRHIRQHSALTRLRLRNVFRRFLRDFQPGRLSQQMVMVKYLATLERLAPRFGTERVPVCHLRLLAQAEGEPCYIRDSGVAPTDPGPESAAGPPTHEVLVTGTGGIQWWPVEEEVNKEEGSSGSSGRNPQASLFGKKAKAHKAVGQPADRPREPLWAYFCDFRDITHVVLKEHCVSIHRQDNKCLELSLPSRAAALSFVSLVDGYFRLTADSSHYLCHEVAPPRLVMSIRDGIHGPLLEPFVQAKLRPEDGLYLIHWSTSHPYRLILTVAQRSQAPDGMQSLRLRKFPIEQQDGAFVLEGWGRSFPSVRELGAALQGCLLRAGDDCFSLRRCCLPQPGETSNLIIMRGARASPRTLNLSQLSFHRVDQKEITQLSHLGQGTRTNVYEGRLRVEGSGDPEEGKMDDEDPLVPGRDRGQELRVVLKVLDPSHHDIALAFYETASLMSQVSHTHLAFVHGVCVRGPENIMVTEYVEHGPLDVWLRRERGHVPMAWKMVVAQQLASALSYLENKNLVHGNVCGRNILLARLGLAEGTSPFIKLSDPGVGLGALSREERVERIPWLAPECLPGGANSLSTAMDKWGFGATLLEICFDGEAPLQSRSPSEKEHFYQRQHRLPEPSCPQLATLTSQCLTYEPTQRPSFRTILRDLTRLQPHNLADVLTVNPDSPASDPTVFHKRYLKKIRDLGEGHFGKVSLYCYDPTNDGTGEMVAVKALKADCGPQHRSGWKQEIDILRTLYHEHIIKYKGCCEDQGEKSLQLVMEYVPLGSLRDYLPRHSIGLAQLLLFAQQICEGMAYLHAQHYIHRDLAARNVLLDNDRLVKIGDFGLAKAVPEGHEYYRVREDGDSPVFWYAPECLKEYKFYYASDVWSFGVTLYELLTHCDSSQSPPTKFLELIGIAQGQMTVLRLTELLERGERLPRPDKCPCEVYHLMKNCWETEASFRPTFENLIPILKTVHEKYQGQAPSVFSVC
Test: Inhibition of TYK2 (unknown origin) (575 to 869 residues) by HTRF assay
Conditions: not given

| Compound | IC50 |
| --- | --- |
| CNC(=O)c1cnc(Nc2ccc(F)cn2)cc1Nc1cccc(C(=O)NC)c1OC | 0.6 nM |
| CNC(=O)c1cccc(Nc2cc(Nc3ccc(F)cn3)ncc2C(=O)NC)c1 | 44 nM |

Biological target: T1, Non-receptor tyrosine-protein kinase TYK2
Test: Inhibition of TYK2 (unknown origin)
Conditions: not given

| Compound | IC50 |
| --- | --- |
| CNC(=O)c1cnc(NC(=O)C2CC2)cc1Nc1cccc(-c2ncn(C)n2)c1OC | 0.7 nM |
| CNC(=O)c1cnc(Nc2cc(C)c(F)cn2)cc1Nc1cccc(-c2ncn(C)n2)c1OC | 0.4 nM |
| [2H]C([2H])([2H])NC(=O)c1cnc(NC(=O)C2CC2)cc1Nc1cccc(-c2ncn(C)n2)c1OC | 0.3 nM |
